# Test results taken from patent publication US20100197650A1, “COMPOSITIONS AND METHODS OF TREATMENT COMPRISING CEFTAROLINE” (FOREST LABORATORIES HOLDINGS LTD., priority 2008, published 2010).
# Where two headings read alike, the source gives them in different places. Marks after values point to notes of the source that are not given here.
# Legend:
# [1] = tested on: ESBL-producing Klebsiella pneumoniae; assay: Susceptibility testing MIC/MBC, broth microdilution (Example 2); type: cell-based; conditions: Klebsiella pneumoniae; for MBC: read-out: MBC
# [2] = tested on: AmpC-derepressed Enterobacter cloacae; assay: microbe, parasite or virus in culture; type: cell-based; conditions: for MBC / MIC: Enterobacter cloacae
# [3] = tested on: Klebsiella pneumoniae; assay: MIC, broth microdilution (Example 1); type: cell-based
# Procedure: (§1) Stock solutions of all antibacterial agents were prepared at 80-fold (80×) the final target concentration in the appropriate solvent and the solution was allowed to stand for 60 minutes. All antibacterial agents were in solution under these conditions. The final drug concentrations in the FIC assay plates were set to bracket the MIC value of each agent for each test organism, unless the strain was totally resistant to the test agent.
# (§2) The test organisms were originally received from clinical sources, or from the American Type Culture Collection. Upon receipt, the isolates were streaked onto the appropriate growth medium: Chocolate Agar for H. influenzae, Tryptic Soy Agar II (Becton Dickinson, Sparks, Md.) supplemented with 5% defibrinated sheep blood for streptococci, and unsupplemented Tryptic Soy Agar II for all other organisms. Colonies were harvested from these plates and a cell suspension was prepared in Tryptic Soy Broth (Becton Dickinson) containing cryoprotectant. Aliquots were then frozen at −80° C. On the day prior to assay, the frozen seeds of the organisms to be tested in that session were thawed and streaked for isolation onto the appropriate agar medium plates and incubated overnight at 35° C.
# (§3) The test medium for H. influenzae was Haemophilus Test Medium. Streptococci were tested in Mueller Hinton II Broth (Becton Dickinson; Lot 6235472) supplemented with 2% lysed horse blood (Cleveland Scientific, Bath, Ohio; Lot H88621). All other organisms were tested in Mueller Hinton II Broth (Becton Dickinson, Lot 6235472). The broth was prepared at 1.05× normal weight/volume to offset the 5% volume of the drugs in the final test plates.
# (§4) In order to select the proper test concentrations for each drug combination, minimal inhibitory concentration (MIC) values were first determined using the broth microdilution method previously described (Clinical and Laboratory Standards Institute. Methods for Dilution Antimicrobial Susceptibility Tests for Bacteria That Grow Aerobically; Approved Standard—Seventh Edition. Clinical and Laboratory Standards Institute document M7-A7 [ISBN 1-56238-587-9]. Clinical and Laboratory Standards Institute, 940 West Valley Road, Suite 1400, Wayne, Pa. 19087-1898 USA, 2006).
# (§5) The wells of standard 96-well microdilution plates (Falcon 3918) were filled with 150 μL of 100% DMSO using the Multidrop 384. These plates were used to prepare the drug “mother plates” which provided the serial drug dilutions for the drug combination plates. The Biomek 2000 was used to transfer 150 μl of each stock solution (80×) from the wells in Column 1 of a deep well plate to the corresponding wells in Column 1 of the mother plate and to make seven 2-fold serial dilutions. Two mother plates, one for each drug, were combined to form a “checkerboard” pattern by transfer of equal volumes (using a multi-channel pipette) to the drug combination plate. Row H and Column 8 each contained serial dilutions of one of the agents alone for determination of the MIC.
# (§6) Plates were stacked 3 high, covered with a lid on the top plate, placed in plastic bags, and incubated at 35° C. for approximately 20 hours. Following incubation, the microplates were removed from the incubator and viewed from the bottom using a ScienceWare plate viewer. Prepared reading sheets were marked for the MIC of drug 1 (row H), the MIC of drug 2 (column 8) and the wells of the growth-no growth interface.
# [4] = tested on: Streptococcus pneumoniae; assay: MIC, broth microdilution (Example 1); type: cell-based
# Procedure: as §1, §2, §3, §4, §5, §6
# [5] = tested on: Haemophilus influenzae; assay: MIC, broth microdilution (Example 1); type: cell-based; conditions: Haemophilus influenzae, read-out: MIC
# Procedure: as §1, §2, §3, §4, §5, §6
# [6] = tested on: Escherichia coli; assay: MIC, broth microdilution (Example 1); type: cell-based
# Procedure: as §1, §2, §3, §4, §5, §6
# [7] = tested on: Streptococcus pyogenes; assay: MIC, broth microdilution (Example 1); type: cell-based; conditions: Streptococcus pyogenes, read-out: MIC
# Procedure: as §1, §2, §3, §4, §5, §6
# [8] = tested on: ESBL-producing E. coli; assay: Susceptibility testing MIC/MBC, broth microdilution (Example 2); type: cell-based, Escherichia coli; conditions: for MBC / MIC: Escherichia coli; for MBC: read-out: MBC; for MIC: read-out: MIC
# [9] = tested on: P. aeruginosa; assay: as above; type: cell-based, Pseudomonas aeruginosa; conditions: for MBC / MIC: Pseudomonas aeruginosa; for MBC: read-out: MBC; for MIC: read-out: MIC
# [10] = K. pneumonia isolate no. 5427, read-out: MIC
# [11] = K. pneumonia isolate no. 5436, read-out: MIC
# [12] = E. cloacae (10) clinical isolates
# [13] = Klebsiella pneumoniae, K. pneumoniae 1340, read-out: MIC
# [14] = Klebsiella pneumoniae, K. pneumoniae 1461, read-out: MIC
# [15] = Escherichia coli, E. coli 1587, read-out: MIC
# [16] = Escherichia coli, E. coli 2273 (ESBL), read-out: MIC
compound,measurement,setting,value
C[C@H]1COc2c(N3CCN(C)CC3)c(F)cc3c(=O)c(C(=O)O)cn1c23 [Levofloxacin],MBC,[1]; K. pneumonia isolate no. 5427,2 µg/mL
same,MIC,[1]; [10],0.25 µg/mL
same,MBC,[1]; K. pneumonia isolate no. 5436,4 µg/mL
same,MIC,[1]; [11],4 µg/mL
same,MBC range,[2]; [12],0.03 to 128 µg/mL
same,MIC range,[2]; [12],0.03 to 64 µg/mL
same,MBC,[2]; E. cloacae isolate no. 4073,0.06 µg/mL
same,MIC,[2]; E. cloacae isolate no. 4073,0.06 µg/mL
same,MBC,[2]; E. cloacae isolate no. 5420,0.06 µg/mL
same,MIC,[2]; E. cloacae isolate no. 5420,0.06 µg/mL
same,MIC,[3]; K. pneumoniae 1461,>4^a μg/mL
same,MIC,[3]; [13],0.06 µg/mL
same,MIC,[3]; [14],> 4 µg/mL
same,MIC,[4]; S. pneumoniae 0866 (PSSP),1 ^ μg/mL
same,MIC,[4]; S. pneumoniae 0869 (PSSP),1 ^ μg/mL
same,MIC,[4]; S. pneumoniae 0880 (PRSP),>4^a μg/mL
same,MIC,[4]; S. pneumoniae 0884 (PRSP),1 ^ μg/mL
same,MIC,"[4]; Streptococcus pneumoniae, PRSP, S. pneumoniae 0880 (PRSP), read-out: MIC",> 4 µg/mL
same,MIC,"[4]; Streptococcus pneumoniae, PRSP, S. pneumoniae 0884 (PRSP), read-out: MIC",1 µg/mL
same,MIC,"[4]; Streptococcus pneumoniae, S. pneumoniae 0866 (PSSP), read-out: MIC",1 µg/mL
same,MIC,"[4]; Streptococcus pneumoniae, S. pneumoniae 0869 (PSSP), read-out: MIC",1 µg/mL
same,MIC,[5]; H. influenzae 1224,0.015 µg/mL
same,MIC,[5]; H. influenzae 2797 (BLNAR),0.015 µg/mL
same,MIC,[5]; H. influenzae 2798 (BLNAR),0.015 µg/mL
same,MIC,[5]; H. influenzae 2799 (BLNAR),0.015 µg/mL
same,MIC,[6]; E. coli 2273 (ESBL),>4^a μg/mL
same,MIC,[6]; [15],0.06 µg/mL
same,MIC,[6]; [16],> 4 µg/mL
same,MIC,[7]; S. pyogenes 0717,0.5 µg/mL
same,MIC,[7]; S. pyogenes 0722,0.5 µg/mL
same,MBC range,[8]; E. coli (10) clinical isolates,0.06 to 32 µg/mL
same,MIC range,[8]; E. coli (10) clinical isolates,0.03 to 32 µg/mL
same,MBC,[8]; E. coli isolate no. 5401,32 µg/mL
same,MIC,[8]; E. coli isolate no. 5401,32 µg/mL
same,MBC,[8]; E. coli isolate no. 5411,16 µg/mL
same,MIC,[8]; E. coli isolate no. 5411,8 µg/mL
same,MIC range,[9]; P. aeruginosa (20) clinical isolates,0.25 to 32 µg/mL
same,MBC,[9]; P. aeruginosa isolate no. 796,2 µg/mL
same,MIC,[9]; P. aeruginosa isolate no. 796,1 µg/mL
same,MBC,[9]; P. aeruginosa isolate no. 956,1 µg/mL
same,MIC,[9]; P. aeruginosa isolate no. 956,0.5 µg/mL
same,MBC,[9]; P. aeruginosa isolate no. 1019,1 µg/mL
same,MIC,[9]; P. aeruginosa isolate no. 1019,0.5 µg/mL
same,MBC,[9]; P. aeruginosa isolate no. 1037,0.5 µg/mL
same,MIC,[9]; P. aeruginosa isolate no. 1037,0.25 µg/mL
C[C@H]1[C@H](NC(=O)/C(=N\OC(C)(C)C(=O)O)c2csc(N)n2)C(=O)N1S(=O)(=O)O [Aztreonam],MIC,"[1]; 1 K. pneumoniae isolate, read-out: MIC",0.5 µg/mL
same,MBC,[1]; K. pneumonia isolate no. 5427,1 µg/mL
same,MIC,[1]; [10],0.5 µg/mL
same,MBC,[1]; K. pneumonia isolate no. 5436,64 µg/mL
same,MIC,[1]; [11],64 µg/mL
same,MIC,"[1]; all K. pneumoniae except 1 isolate, read-out: MIC values",≥ 8 µg/mL
same,MIC,[3]; [13],0.12 µg/mL
same,MIC,[3]; [14],0.25 µg/mL
same,MIC,[6]; [15],0.25 µg/mL
same,MIC,[6]; [16],16 µg/mL
same,MBC,[8]; E. coli isolate no. 5401,0.25 µg/mL
same,MIC,[8]; E. coli isolate no. 5401,0.25 µg/mL
same,MBC,[8]; E. coli isolate no. 5411,32 µg/mL
same,MIC,[8]; E. coli isolate no. 5411,8 µg/mL
